Data published in paper PMC5840262, “Design, Synthesis and Evaluation of Branched RRWQWR-Based Peptides as Antibacterial Agents Against Clinically Relevant Gram-Positive and Gram-Negative Pathogens” (Frontiers in Microbiology, 2018).
Ends that are not written are not given here.

Experiments:
Type in all cases: cell-based
[1] = tested on: Klebsiella pneumoniae clinical isolate 50,424; details: K. pneumoniae isolate 50,424
Procedure: (§1) For the clinical isolates, we used 20 different isolates from the Public Health Reference Laboratory collection of the Secretaría de Salud del Distrito (SdSD; Bogotá, Colombia). The samples were collected from June to December 2016. For each isolate, the patient parameters (age, gender and location) and the culture site were recorded for epidemiologic monitoring (Table 1). All isolates had been previously tested for antibiotic sensitivity at the Public Health Microbiology Laboratory using either the Phoenix™ system (Gram-positive) or the VITEK 2 system (Gram-negative).
(§2) We screened all five peptides against the ATCC reference strains and the clinical isolates according to Method M7-A7 of the National Committee for Clinical Laboratory Standards (CLSI, [2007]). The MIC50 and MBC values were determined using a broth microdilution and growth inhibition method previously reported by Leon-Calvijo et al. ([2015]), with some modifications (Wiegand et al., [2008]). Briefly, the MIC50 experiments comprised a liquid-inhibition growth assay in a sterile, untreated, 96-well flat-bottom tissue culture plate. The bacteria were cultured overnight n Mueller Hinton agar; three colonies were transferred to 8 mL of Mueller Hilton broth and incubated at 37°C until the mid-exponential phase of growth. The turbidity of the cultures was measured and adjusted spectrophotometrically to a McFarland standard of 0.5, and then diluted to a final concentration of 5 × 10^7 colony forming units (CFU) per well. Stock solutions (2,000 μM) of each test peptide were serially diluted to final concentrations (per well) of 200, 100, 50, 25, 12.5, and 6.25 μM. Each concentration was evaluated in duplicate and each assay was performed in triplicate.
(§3) Wells containing Mueller Hilton broth with bacterial inoculum only served as bacterial-growth controls. Additional controls included Mueller Hilton broth alone (as blank) and Mueller Hilton broth with ciprofloxacin (2 μg/mL; as positive control). The microplate was incubated for 24 h at 37°C, and growth inhibition was measured by monitoring the optical density at 620 nm (OD620). The MIC50 was defined as the peptide concentration at which bacterial growth was inhibited by 50%.
(§4) To determine the MBC, an aliquot from each well of the MIC50 assay was spread onto Mueller Hilton agar. After 18 h at 37°C, the concentration that inhibited bacterial growth was determined. Each of these tests was performed four times. MBC was defined as the lowest concentration of peptide at which the number of bacteria was reduced by 99.9% in vitro (European Committee for Antimicrobial Susceptibility Testing, [2000]).

[2] = tested on: Staphylococcus aureus clinical isolate 48,575; details: S. aureus isolate 48,575
Procedure: as §1, §2, §3, §4

[3] = tested on: Staphylococcus aureus clinical isolate 52,013; details: S. aureus isolate 52,013
Procedure: as §1, §2, §3, §4

[4] = tested on: Enterococcus faecium clinical isolate 550; details: E. faecium isolate 550
Procedure: as §1, §2, §3, §4

[5] = tested on: Pseudomonas aeruginosa clinical isolate 48,221; details: P. aeruginosa isolate 48,221
Procedure: as §1, §2, §3, §4

[6] = tested on: Klebsiella pneumoniae clinical isolate 50,181; details: K. pneumoniae isolate 50,181
Procedure: as §1, §2, §3, §4

[7] = tested on: Staphylococcus aureus clinical isolate 43,062; details: S. aureus isolate 43,062
Procedure: as §1, §2, §3, §4

[8] = tested on: Enterococcus faecium clinical isolate 1,040; details: E. faecium isolate 1,040
Procedure: as §1, §2, §3, §4

[9] = tested on: Enterococcus faecium clinical isolate 1,462; details: E. faecium isolate 1,462
Procedure: as §1, §2, §3, §4

[10] = tested on: Pseudomonas aeruginosa clinical isolate 48,458; details: P. aeruginosa isolate 48,458
Procedure: as §1, §2, §3, §4

[11] = tested on: Staphylococcus aureus clinical isolate 48,577; details: S. aureus isolate 48,577
Procedure: as §1, §2, §3, §4

[12] = tested on: Pseudomonas aeruginosa clinical isolate 47,661; details: P. aeruginosa isolate 47,661
Procedure: as §1, §2, §3, §4

[13] = tested on: Enterococcus faecium clinical isolate 1,225; details: E. faecium isolate 1,225
Procedure: as §1, §2, §3, §4

[14] = tested on: Klebsiella pneumoniae clinical isolate 51,048; details: K. pneumoniae isolate 51,048
Procedure: as §1, §2, §3, §4

[15] = tested on: Pseudomonas aeruginosa clinical isolate 48,526; details: P. aeruginosa isolate 48,526
Procedure: as §1, §2, §3, §4

[16] = tested on: Klebsiella pneumoniae clinical isolate 51,009; details: K. pneumoniae isolate 51,009
Procedure: as §1, §2, §3, §4

[17] = tested on: Enterococcus faecium clinical isolate 1,461; details: E. faecium isolate 1,461
Procedure: as §1, §2, §3, §4

[18] = broth microdilution, 24 h 37°C, OD620, 50% growth inhibition
[19] = plated on agar 18 h 37°C, 99.9% reduction

“RRWQWR-NH2 [LfcinB (20–25), reference compound]” was tested, and the MIC50 [1, 18] was 11.3 µM, the MBC [1, 19] was >100 µM and the MIC50 [2, 18] was 3.7 µM. For the same substance, the MBC [2, 19] was >100 µM, the MIC50 [3, 18] was 5.1 µM and the MBC [3, 19] was >100 µM. The MIC50 [4, 18] was >100 µM, the MBC [4, 19] was >100 µM and the MIC50 [5, 18] was >100 µM. For the same substance, the MBC [5, 19] was >100 µM, the MIC50 [6, 18] was >100 µM and the MBC [6, 19] was >100 µM. For the same substance, the MIC50 [7, 18] was 5.1 µM, the MBC [7, 19] was >100 µM and the MIC50 [8, 18] was >100 µM. For the same substance, the MBC [8, 19] was >100 µM, the MIC50 [9, 18] was >100 µM and the MBC [9, 19] was >100 µM. The MIC50 [10, 18] was >100 µM, the MBC [10, 19] was >100 µM and the MIC50 [11, 18] was 3.7 µM. The MBC [11, 19] was >100 µM, the MIC50 [12, 18] was >100 µM and the MBC [12, 19] was >100 µM. The MIC50 [13, 18] was >100 µM, the MBC [13, 19] was >100 µM and the MIC50 [14, 18] was >100 µM. The MBC [14, 19] was >100 µM, the MIC50 [15, 18] was >100 µM and the MBC [15, 19] was >100 µM. The MIC50 [16, 18] was >100 µM, the MBC [16, 19] was >100 µM and the MIC50 [17, 18] was >100 µM. For the same substance, the MBC [17, 19] was >100 µM.
